According to US11136304B2, “Salts of a heterocyclic compound and crystalline forms, processes for preparing, therapeutic uses, and pharmaceutical compositions thereof” (Sunovion Pharmaceuticals Inc., priority 2019, dated 2021):
Structures can show the parent of a compound that is named as a salt.

Experiment: Stability study (storage at 60° C. and 60° C. 75% RH, measured by HPLC)
Type: physicochemical
Set-up: Stability Study Results (HPLC): unit not given here
Conditions: for stability: stored at 60° C. and 60° C. 75% RH for 1 month, measured at 20 days and 1 month by HPLC
Procedure: Each sample was stored at 60° C. and 60° C. 75% RH for 1 month. Each sample was measured at 20 days and 1 month by HPLC. HPLC conditions are described below.
Column: Waters XSelect CSH C18, 4.6×150 mm, 3.5 μm
MPA: 50 mM HClO4 in water (pH=3)
MPB: MeOH/acetonitrile (9:1)

| Compound | Stability Study Results (HPLC) (1 month at 60° C.) | Stability Study Results (HPLC) (1 month at 60° C. 75% RH) | Stability Study Results (HPLC) (20 day at 60° C.) | Stability Study Results (HPLC) (20 days at 60° C. 75% RH) | Stability Study Results (HPLC) (Initial) | stability | stability (phosphate) |
| --- | --- | --- | --- | --- | --- | --- | --- |
| O=C(O)CC(O)(CC(=O)O)C(=O)O [Citric acid] | 99.16 | 97.73 | 99.10 | 98.34 | 99.08 | – | – |
| O=P(O)(O)O [Compound H3PO4] | 99.23 | 99.24 | 99.20 | 99.20 | 99.20 | – | – |
| CNC[C@@H]1OCCc2cccc(F)c21.O=C(O)/C=C/C(=O)O [Fumarate, (R)-1-(8-fluoroisochroman-1-yl)-N-methylmethanamine fumarate] | – | – | – | – | – | stable | – |
| O=C(O)/C=C/C(=O)O [Fumaric acid] | 99.60 | 99.64 | 99.54 | 99.67 | 99.48 | – | – |
| Cl [HCl] | 98.89 | 99.05 | 98.50 | 99.07 | 98.94 | – | – |
| CNC[C@@H]1OCCc2cccc(F)c21.Cl [Hydrochloride, (R)-1-(8-fluoroisochroman-1-yl)-N-methylmethanamine hydrochloride] | – | – | – | – | – | stable | – |
| CNC[C@@H]1OCCc2cccc(F)c21.O=C(O)C(O)C(O)C(=O)O [L-tartrate, (R)-1-(8-fluoroisochroman-1-yl)-N-methylmethanamine L-tartrate] | – | – | – | – | – | stable | – |
| CNC[C@@H]1OCCc2cccc(F)c21 [Phosphate, (R)-1-(8-fluoroisochroman-1-yl)-N-methylmethanamine phosphate] | – | – | – | – | – | – | stable |
| CNC[C@@H]1OCCc2cccc(F)c21.O=C(O)CC(O)(CC(=O)O)C(=O)O [citrate, (R)-1-(8-fluoroisochroman-1-yl)-N-methylmethanamine citrate] | – | – | – | – | – | stable | – |
| CNC[C@@H]1OCCc2cccc(F)c21 [freebase (amorphous) of Compound 1, (R)-1-(8-fluoroisochroman-1-yl)-N-methylmethanamine] | – | – | – | – | – | unstable | – |
| L-Tartaric | 99.14 | 99.23 | 99.13 | 99.23 | 99.10 | – | – |
